From US12673972B2, “Lung-specific targeting-peptide (LTP), compositions, and uses thereof” (University of Pittsburgh—Of the Commonwealth System of …, priority 2019, dated 2026)
Entries after “also recorded” stand apart in the source; their conditions may differ. No end group written: not given here. Cy5.5 = Cy5.5 fluorescent label

How the values were obtained:
[1] = system: H9C2 cells; experiment: FACS uptake of Cy5.5-labeled alanine-scan peptides in H9C2 cells; format: cell-based, rat; conditions: 10 μM peptide, 30 minutes at 37° C., FACS gated on live cells
Procedure: An alanine scan of the cardiac targeting peptide (CTP, APWHLSSQYSRT, SEQ ID NO: 3) was performed, in which each amino acid was replaced sequentially with alanine, resulting in 11 different “alanine mutant” versions of CTP. Solid phase peptide synthesis of the alanine mutants of CTP fluorescently labeled with Cyanine 5.5 (Cy5.5) was conducted using standard fluorenylmethoxycarbonyl protecting group organic synthesis (FMOC) conditions on a Liberty CEM Microwave Peptide Synthesizer. Cleavage of the fully-protected CTP peptide fragment from the 2-chlorotrityl solid support was accomplished using 1% Trifluoroacetic acid (TFA)/methylene chloride (DCM), followed by elution of the peptide using TFA+scavengers, followed by isolation of the crude product by precipitation in Diethyl Ether (EtO2). Fluorescent dye labelling of the N-terminal amine was performed in solution using Cy5.5-NHS (Lumiprobe, Inc). The resulting crude cyclic CTP-Cy5.5 peptide was purified by preparative C-5 Reversed Phase High Performance Liquid Chromatography (RP-HPLC) on a Waters Delta Prep 4000 chromatography system, using standard Acetonitrile/0.1% TFA gradient conditions. Analytical C-5 RP-HPLC characterization on a Waters Alliance chromatography system followed by Matrix-Assisted Laser Desorption/Ionization Time-Of-Flight Mass Spectrometry (MALDI-TOF-MS) analysis on an Applied Biosystems Voyager workstation was used to confirm the expected mass and purity of the final product. For the purposes of nomenclature, the CTP mutants are identified by the original amino acid followed by its numbered position and A to indicate alanine at the substituted position, e.g., R11A indicates arginine at position 11 of CTP substituted with alanine (APWHLSSQYSAT, SEQ ID NO: 2). CTP was also synthesized as a 6-amino acid N-terminal peptide (CTP-A, APWHLS, SEQ ID NO: 4), and as a 6-amino acid C-terminal peptide (CTP-B, SQYSRT, SEQ ID NO: 5).
For in vitro testing, a rat cardiomyoblast cell line, H9C2 was incubated with each of the alanine-scan peptides, including parental peptide CTP and variants CTP-A and CTP-B; each condition was run in triplicate. For the incubation, peptides were received as lyophilized powders and made into 10 mM stock solutions in DMSO. The stock solution was diluted in culture medium to a final concentration of 10 μM for each peptide, and incubated for 30 minutes at 37° C. with H9C2 cells. Following the incubation period, cells were washed extensively with PBS, trypsinized and fluorescence activated cell sorting (FACS) was performed in biological triplicates. […] There was almost a 3-4 fold increase in median fluorescence intensities compared with CTP for S7A peptide and R11A peptide (FIG. 1).

[2] = system: CD1 mice; experiment: In vivo biodistribution of fluorescently labeled peptides in mice (IVIS ex vivo organ imaging, confocal microscopy); conditions: for cardiac uptake / uptake in lung epithelial tissue: 10 mg/kg intravenously, 15 minutes circulation, CD1 mice; for uptake in lung epithelial tissue: confocal and IVIS; for greater lung than liver uptake (lung-to-liver ratio of fluorescent intensity) / lung transduction at lower doses: S7A 5 mg/kg, R11A 5 and 1 mg/kg, 15 minutes, ex vivo IVIS; for lung transduction at lower doses: even at the lowest injected dose
Procedure: CTP-B, CTP-P2A, CTP-S7A, CTP-R11A and a random negative control peptide (RAN), were further tested in vivo in mice, in triplicate. Wild-type, 6-week old, male and female CD1 mice were weighed and anesthetized. Mice were injected intravenously with the various peptides, each at a dose of 10 mg/kg. Peptides circulated for 15 minutes, after which mice were euthanized and fixed with 3 ml of 10% formalin injected through the left ventricular apex. Multiple organs (heart, lungs, liver, kidney, spleen, brain, large intestines, small intestines, testes/ovaries, and eyeball) were harvested, placed in a 12-well plate, and immediately imaged using a Perkin-Elmer IVIS imaging system using the relevant excitation-emission laser/detector wavelengths. After the imaging was complete, organs were placed in 10% formalin at room temperature. Following overnight fixation in formalin, organs were transferred to 30% sucrose at 4° C. Following overnight incubation in sucrose, all organs were embedded and frozen in optical cutting medium, 10 μm thick sections were cut, mounted with DAPI, and cover-slipped. Slides were imaged using confocal fluorescent microscopy using the same parameters for imaging between mice, peptides and organs, to allow for comparison and quantification of fluorescence intensities in the relevant regions of interest.
Injections were repeated in a total of 9 CD1 mice with identical lung uptake; all images were acquired with the same confocal microscope parameters to allow for cross-animal comparison; however, at the same laser intensity, the lung sample was saturated. […] Wild-type mice were injected with Cy5.5 labeled R11A at a dose of 10 mg/kg, and euthanized mice after 15 minutes; multiple organs were then harvested for imaging.
Wild-type CD1 mice were then injected with lower doses of fluorescently labeled S7A peptide (5 mg/kg) or R11A peptide (5 and 1 mg/kg). The peptides were allowed to circulate for 15 minutes, mice were sacrificed, multiple organs were harvested, and ex vivo IVIS imaging was performed. Ex vivo imaging of organs harvested from mice without injected peptides was performed in order to subtract background auto-fluorescent signal from the test organs. IVIS imaging of multiple organs was conducted after administering decreasing doses of peptide from 5 to 1 mg/kg. […] Quantification of IVIS imaging for total fluorescent intensity for heart, lung, liver, kidney, spleen, and brain is shown in FIG. 4. Using the fluorescent intensity values, Lung-to-Liver ratios for both peptides were calculated at the tested doses.

[3] = system: human bronchial epithelial cells from patients with CF; experiment: Uptake at 4° C with fluorescently labeled transferrin (Tf-488) in human bronchial epithelial cells from patients with CF; format: cell-based; conditions: for uptake relative to random peptide: 10 μM, 1 hour on ice at 4° C. then 37° C., times 0, 5 and 30 minutes; for energy dependence of internalization: occurred even at 4° C.
Procedure: To further characterize uptake of S7A peptide and R11A peptide in cells of interest, human bronchial epithelial cells from patients with CF were grown on cover-slips. Cells were starved at 37° C. for 1 hour in minimal media (MEM media+0.5% Bovine Serum Albumin (BS)+25 mM Hepes buffer at pH 7.4), washed with cold PBS, incubated on ice at 4° C. with fluorescently labeled transferrin (Tf-488) and 10 μM of test peptide (Random, S7A peptide, or R11A peptide) for 1 hour before being shifted to a 37° C. water-bath. Cover-slips were fixed at times 0, 5 and 30 minutes, with random peptide samples fixed only at 0 and 30 minutes.

[4] = system: human bronchial epithelial cells from patients with Cystic Fibrosis (CF); experiment: Confocal uptake in human bronchial epithelial cells from patients with Cystic Fibrosis; format: cell-based; conditions: for uptake by confocal microscopy: 10 μM, 0, 2, 10 or 30 minutes at 37° C./5% CO2, FIG. 6A; for quantification of fluorescence intensity (uptake): FIG. 6B
Procedure: Cells were grown on coverslips, incubated with 10 μM of S7A peptide, R11A peptide, or a random, negative control peptide, for 0, 2, 10, or 30 minutes at 37° C./5% CO2. Following incubation, cells were washed with prewarmed PBS, cross-stained with DAPI, fixed, and mounted on slides for confocal microscopy. […] In the time 0 and 2 minute timepoints, only the DAPI nuclear stain is visible, with cytoplasmic staining for the LTPs growing visible at 10 minutes and dominating the field of view at 30 minutes.

[5] = system: H9C2 cells; experiment: Confocal microscopy of H9C2 cells transduced with linear or cyclic CTP; format: cell-based, rat; conditions: for Mean (fluorescence) / Subtraction (mean minus background fluorescence): transduced H9C2 cells, confocal quantification
Text: The cardiac targeting peptide (CTP, SEQ ID NO: 3) was cyclized by establishing a chemical bond between the amino and carboxyl termini (between the alpha-amino group of N-terminal Lysine and the C-terminus of the peptide sequence), and subsequently labelled with a Cy5.5 fluorescent label at the epsilon amino group of the N-terminal lysine.
The cyclic form of CTP was then compared to the linear form of CTP using confocal microscopy of transduced H9C2 cells, using the protocol as described in Example 1 above. […] Quantification of the fluorescence intensity, as shown in FIG. 10B and Table 2, confirmed the enhanced fluorescent activity.

| Substance | uptake of the fluorescently labeled peptide into H9C2 cells as compared to full-length, parental CTP [1] | cardiac uptake [2] | uptake relative to random peptide [3] | energy dependence of internalization [3] | uptake by confocal microscopy [4] | quantification of fluorescence intensity (uptake) ([4]; 10 μM) | uptake and fluorescence intensity compared between test peptides ([4]; 10 μM, confocal microscopy, FIG. 6A) | uptake in lung epithelial tissue [2] | greater lung than liver uptake (lung-to-liver ratio of fluorescent intensity) [2] | lung transduction at lower doses [2] | Mean (fluorescence) [5] | Subtraction (mean minus background fluorescence) [5] | uptake of cyclic format relative to linear format ([5]; confocal imaging, FIG. 10A) |
| --- | --- | --- | --- | --- | --- | --- | --- | --- | --- | --- | --- | --- | --- |
| AAWHLSSQYSRT [CTP-P2A] | statistically significantly higher uptake | results similar to what was predicted from in vitro H9C2 transduction |  |  |  |  |  |  |  |  |  |  |  |
| APWHLSAQYSRT (also: Cy5.5 label, place not given here) [S7A, Lung-specific targeting peptide, alanine mutant of CTP; tested Cy5.5-labeled] | statistically significantly higher uptake | did not show significant cardiac uptake; also recorded: without significant cardiac uptake | robust uptake | not energy-dependent | robust uptake | significantly high uptake | higher uptake and fluorescence intensity even than R11A peptide | robust uptake | approximately 2.5 fold | Robust lung transduction |  |  |  |
| APWHLSSQYSAT (also: Cy5.5 label, place not given here) [R11A, Lung-specific targeting peptide, alanine mutant of CTP; tested Cy5.5-labeled] | statistically significantly higher uptake | did not show significant cardiac uptake; also recorded: without significant cardiac uptake | robust uptake | not energy-dependent | robust uptake | significantly high uptake |  | Robust lung uptake | 8-9 fold | Robust lung transduction |  |  |  |
| APWHLSSQYSRT [Linear CTP, cardiac targeting peptide described in WO2019226785A1, parental peptide, reference compound] |  |  |  |  |  |  |  |  |  |  | 362.478 | 134.777 |  |
| KAPWHLSSQYSRT (cyclo(K(Cy5.5)APWHLSSQYSRT)) [Cyclic CTP, CTP cyclized via N-terminal lysine alpha-amino group to C-terminus, Cy5.5 at lysine epsilon amino group] |  |  |  |  |  |  |  |  |  |  | 521.590 | 371.123 | enhanced uptake relative to the linear format |
| SQYSRT [CTP-B, 6-amino acid C-terminal peptide of CTP] | statistically significantly higher uptake | results similar to what was predicted from in vitro H9C2 transduction |  |  |  |  |  |  |  |  |  |  |  |
